Reference: patent US7115544B2, “Plant growth regulators for cotton hervest” (Sumitomo Chemical Company, Limited, priority 2001, dated 2006)

Legend:
cotton plants = assay: Field test on cotton plants at boll opening: defoliation ratio and boll opening after foliar spray; format: in vivo; conditions: for Defoliation ratio (%) Rep. 1 / Defoliation ratio (%) Rep. 2 / Defoliation ratio (%) Rep. 3: 20 g/ha, emulsifiable concentrate diluted with water containing 1% (v/v) COC, day 14 after the treatment; for Defoliation ratio (%) Rep. 1: replication 1 about 60% of open bolls; for Defoliation ratio (%) Rep. 2: replication 2 about 60 to 70% of open bolls; for Defoliation ratio (%) Rep. 3: replication 3 80 to 85% of open bolls; for cotton boll opening: field test, sprayed at the time of cotton boll opening
Method: The test results were evaluated according to the following criteria: Defoliation ratio (%)=(the number of dropped leaves/the total number of leaves examined)×100
Cotton seeds were planted and grown in the field. At the time of cotton boll opening, 2.5 parts of each of compounds […], 10 parts of Sorpol 3890 (Toho Chemical Industry Co., Ltd.), and 87.5 parts of SOLVESSO 200 (Exxon Mobile Chemical Company) were well mixed to give an emulsifiable concentrate for each compound, which was then diluted at a prescribed dose with water containing 1% (v/v) crop oil concentrate (COC), and the dilution was uniformly sprayed to the plants. Treatments were carried out with three replications. Replication 1 had about 60% of open bolls; replication 2 had about 60 to 70% of open bolls; replication 3 had 80 to 85% of open boils. The treated fields are each 4 m×6.4 m in area, and the cotton plants on day 14 after the treatment were examined for the defoliation ratio.

With `COC(=O)COc1ccccc1Oc1cc(-n2c(=O)cc(C(F)(F)F)n(C)c2=O)c(F)cc1Cl` [Compound a-5, methyl [2-{2-chloro-4-fluoro-5-[3-methyl-2,6-dioxo-4-(trifluoromethyl)-1,2,3,6-tetrahydropyrimidin-1-yl]phenoxy}phenoxy]acetate] the “Defoliation ratio (%) Rep. 1” value (cotton plants) was 85%, the “Defoliation ratio (%) Rep. 2” value (cotton plants) was 90% and the “Defoliation ratio (%) Rep. 3” value (cotton plants) was 82%. For the same compound, the cotton boll opening (cotton plants) was “stimulated cotton boll opening”.

`Cn1c(C(F)(F)F)cc(=O)n(-c2cc(Oc3ccccc3OCC(=O)OC(C)(C)C)c(Cl)cc2F)c1=O` [Compound a-121, t-butyl [2-{2-chloro-4-fluoro-5-[3-methyl-2,6-dioxo-4-(trifluoromethyl)-1,2,3,6-tetrahydropyrimidin-1-yl]phenoxy}phenoxy]acetate] showed a melting point of 55.6 °C.

In the case of `COC(=O)COc1ncccc1Oc1cc(-n2c(=O)cc(C(F)(F)F)n(C)c2=O)c(F)cc1Cl` [Compound a-6, methyl [3-{2-chloro-4-fluoro-5-[3-methyl-2,6-dioxo-4-(trifluoromethyl)-1,2,3,6-tetrahydropyrimidin-1-yl]phenoxy}-2-pyridyloxy]acetate], the “Defoliation ratio (%) Rep. 1” value (cotton plants) was 80%, the “Defoliation ratio (%) Rep. 2” value (cotton plants) was 75% and the “Defoliation ratio (%) Rep. 3” value (cotton plants) was 85%. The cotton boll opening (cotton plants) was “stimulated cotton boll opening”.
